Reference: PubChem BioAssay AID248 (DTP/NCI, 2004)
Values joined by “and” are separate entries in the source; they are usually repeats but may differ in a detail not shown here. Equal values may be shown once. Inconclusive results and toxic doses are left out.

Test system: L1210 leukemia ip in BDF1 mice, survival T/C
Assay: NCI In Vivo Anticancer Drug Screen. Data for tumor model L1210 Leukemia (intraperitoneal) in B6D2F1 (BDF1) mice
Conditions: higher = longer survival
Outline: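 Mice bearing the transplanted tumor received compound or vehicle. Survival of the treated group was divided by that of the vehicle-treated control group to give the ratio.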

Q: What does the source list for Oc1cc(CN(CCCl)CCCl)c(O)cc1CN(CCCl)CCCl?
A: T/C (endpoint: mean survival time, dose: 0.06 mg/kg/injection, schedule: Q#A X Z (ip), vehicle: saline): 118 % of control; T/C (endpoint: mean survival time, dose: 0.13 mg/kg/injection, schedule: Q01DX Z (ip), vehicle: saline): 120 % of control; T/C (endpoint: mean survival time, dose: 0.25 mg/kg/injection, schedule: Q01DX001 (ip), vehicle: saline): 111 % of control; T/C (endpoint: mean survival time, dose: 0.25 mg/kg/injection, schedule: Q01DX Z (ip), vehicle: saline): 122 % of control; T/C (endpoint: mean survival time, dose: 0.25 mg/kg/injection, schedule: Q07DX003 (ip), vehicle: saline): 158 % of control; T/C (endpoint: mean survival time, dose: 0.5 mg/kg/injection, schedule: Q01DX001 (ip), vehicle: saline): 104 % of control; T/C (endpoint: mean survival time, dose: 0.5 mg/kg/injection, schedule: Q01DX010 (ip), vehicle: saline): 121 % of control; T/C (endpoint: mean survival time, dose: 0.5 mg/kg/injection, schedule: Q07DX003 (ip), vehicle: saline): 104 % of control; T/C (endpoint: mean survival time, dose: 0.5 mg/kg/injection, schedule: Q#A X Z (ip), vehicle: saline): 122 % of control; T/C (endpoint: mean survival time, dose: 1.0 mg/kg/injection, schedule: Q01DX001 (ip), vehicle: saline): 107 % of control and 113 % of control; T/C (endpoint: mean survival time, dose: 1.25 mg/kg/injection, schedule: Q01DX009 (ip), vehicle: saline): 107 % of control and 118 % of control; T/C (endpoint: mean survival time, dose: 2.0 mg/kg/injection, schedule: Q01DX001 (ip), vehicle: saline): 111 % of control and 120 % of control; T/C (endpoint: mean survival time, dose: 2.0 mg/kg/injection, schedule: Q01DX006 (iv), vehicle: saline): 114 % of control; T/C (endpoint: mean survival time, dose: 2.0 mg/kg/injection, schedule: Q01DX Z (im), vehicle: saline): 108 % of control; T/C (endpoint: mean survival time, dose: 2.0 mg/kg/injection, schedule: Q01DX Z (sc), vehicle: saline): 108 % of control; T/C (endpoint: mean survival time, dose: 2.5 mg/kg/injection, schedule: Q01DX009 (ip), vehicle: saline): 119 % of control; T/C (endpoint: mean survival time, dose: 3.0 mg/kg/injection, schedule: Q03DX006 (ip), vehicle: saline): 106 % of control; T/C (endpoint: mean survival time, dose: 4.0 mg/kg/injection, schedule: Q01DX001 (ip), vehicle: saline): 108 % of control; T/C (endpoint: mean survival time, dose: 4.0 mg/kg/injection, schedule: Q01DX006 (iv), vehicle: saline): 117 % of control; T/C (endpoint: mean survival time, dose: 4.0 mg/kg/injection, schedule: Q01DX010 (ip), vehicle: saline): 119 % of control; T/C (endpoint: mean survival time, dose: 4.0 mg/kg/injection, schedule: Q01DX Z (im), vehicle: saline): 120 % of control; T/C (endpoint: mean survival time, dose: 4.0 mg/kg/injection, schedule: Q01DX Z (sc), vehicle: saline): 114 % of control; T/C (endpoint: mean survival time, dose: 5.0 mg/kg/injection, schedule: Q01DX009 (ip), vehicle: saline): 122 % of control; T/C (endpoint: mean survival time, dose: 5.0 mg/kg/injection, schedule: Q01DX010 (ip), vehicle: saline): 117 % of control; T/C (endpoint: mean survival time, dose: 8.0 mg/kg/injection, schedule: Q01DX001 (ip), vehicle: saline): 104 % of control and 113 % of control; T/C (endpoint: mean survival time, dose: 8.0 mg/kg/injection, schedule: Q01DX006 (iv), vehicle: saline): 123 % of control; T/C (endpoint: mean survival time, dose: 8.0 mg/kg/injection, schedule: Q01DX Z (im), vehicle: saline): 108 % of control; T/C (endpoint: mean survival time, dose: 8.0 mg/kg/injection, schedule: Q01DX Z (oral), vehicle: saline): 117 % of control; T/C (endpoint: mean survival time, dose: 8.0 mg/kg/injection, schedule: Q01DX Z (sc), vehicle: saline): 111 % of control; T/C (endpoint: mean survival time, dose: 8.0 mg/kg/injection, schedule: Q#A X Z (ip), vehicle: saline): 102 % of control; T/C (endpoint: mean survival time, dose: 10.0 mg/kg/injection, schedule: Q01DX009 (ip), vehicle: saline): 93 % of control and 96 % of control; T/C (endpoint: mean survival time, dose: 10.0 mg/kg/injection, schedule: Q01DX010 (ip), vehicle: saline): 89 % of control; T/C (endpoint: mean survival time, dose: 16.0 mg/kg/injection, schedule: Q01DX001 (ip), vehicle: saline): 122 % of control and 124 % of control; T/C (endpoint: mean survival time, dose: 16.0 mg/kg/injection, schedule: Q01DX006 (iv), vehicle: saline): 123 % of control; T/C (endpoint: mean survival time, dose: 16.0 mg/kg/injection, schedule: Q01DX Z (im), vehicle: saline): 117 % of control; T/C (endpoint: mean survival time, dose: 16.0 mg/kg/injection, schedule: Q01DX Z (ip), vehicle: saline): 103 % of control; T/C (endpoint: mean survival time, dose: 16.0 mg/kg/injection, schedule: Q01DX Z (oral), vehicle: saline): 109 % of control; T/C (endpoint: mean survival time, dose: 16.0 mg/kg/injection, schedule: Q01DX Z (sc), vehicle: saline): 120 % of control; T/C (endpoint: mean survival time, dose: 16.0 mg/kg/injection, schedule: Q07DX003 (ip), vehicle: saline): 114 % of control; T/C (endpoint: mean survival time, dose: 24.0 mg/kg/injection, schedule: Q03DX006 (ip), vehicle: saline): 124 % of control; T/C (endpoint: mean survival time, dose: 32.0 mg/kg/injection, schedule: Q01DX001 (ip), vehicle: saline): 120 % of control; T/C (endpoint: mean survival time, dose: 32.0 mg/kg/injection, schedule: Q01DX Z (im), vehicle: saline): 93 % of control; T/C (endpoint: mean survival time, dose: 32.0 mg/kg/injection, schedule: Q01DX Z (oral), vehicle: saline): 111 % of control; T/C (endpoint: mean survival time, dose: 32.0 mg/kg/injection, schedule: Q01DX Z (sc), vehicle: saline): 110 % of control; T/C (endpoint: mean survival time, dose: 48.0 mg/kg/injection, schedule: Q03DX006 (ip), vehicle: saline): 104 % of control; T/C (endpoint: mean survival time, dose: 64.0 mg/kg/injection, schedule: Q01DX001 (ip), vehicle: saline): 108 % of control and 110 % of control; T/C (endpoint: mean survival time, dose: 64.0 mg/kg/injection, schedule: Q01DX Z (im), vehicle: saline): 95 % of control; T/C (endpoint: mean survival time, dose: 64.0 mg/kg/injection, schedule: Q01DX Z (oral), vehicle: saline): 105 % of control; T/C (endpoint: mean survival time, dose: 64.0 mg/kg/injection, schedule: Q01DX Z (sc), vehicle: saline): 87 % of control; T/C (endpoint: mean survival time, dose: 64.0 mg/kg/injection, schedule: Q07DX003 (ip), vehicle: saline): 106 % of control; T/C (endpoint: mean survival time, dose: 128.0 mg/kg/injection, schedule: Q01DX001 (ip), vehicle: saline): 108 % of control and 114 % of control; T/C (endpoint: mean survival time, dose: 256.0 mg/kg/injection, schedule: Q01DX001 (ip), vehicle: saline): 119 % of control; T/C (endpoint: mean survival time, dose: 16.0 micrograms/kg/injection, schedule: Q03DX003 (ip), vehicle: saline): 104 % of control; T/C (endpoint: mean survival time, dose: 32.0 micrograms/kg/injection, schedule: Q03DX003 (ip), vehicle: saline): 98 % of control; T/C (endpoint: mean survival time, dose: 37.5 micrograms/kg/injection, schedule: Q07DX002 (ip), vehicle: saline): 102 % of control; T/C (endpoint: mean survival time, dose: 62.5 micrograms/kg/injection, schedule: Q03DX003 (ip), vehicle: saline): 107 % of control; T/C (endpoint: mean survival time, dose: 75.0 micrograms/kg/injection, schedule: Q07DX002 (ip), vehicle: saline): 101 % of control; T/C (endpoint: mean survival time, dose: 125.0 micrograms/kg/injection, schedule: Q03DX003 (ip), vehicle: saline): 102 % of control; T/C (endpoint: mean survival time, dose: 150.0 micrograms/kg/injection, schedule: Q07DX002 (ip), vehicle: saline): 104 % of control; T/C (endpoint: mean survival time, dose: 300.0 micrograms/kg/injection, schedule: Q07DX002 (ip), vehicle: saline): 102 % of control; T/C (endpoint: median survival time, dose: 1.25 mg/kg/injection, schedule: Q01DX009 (ip), vehicle: saline): 157 % of control; T/C (endpoint: median survival time, dose: 5.0 mg/kg/injection, schedule: Q01DX009 (ip), vehicle: saline): 122 % of control; T/C (endpoint: median survival time, dose: 10.0 mg/kg/injection, schedule: Q01DX009 (ip), vehicle: saline): 105 % of control and 114 % of control

Q: With Oc1ccc(CNCCNCCNCc2ccc(O)cc2)cc1 as the compound, how does the T/C (endpoint: mean survival time, dose: 12.5 mg/kg/injection, schedule: Q01DX009 (ip), vehicle: saline) read?
A: The T/C was 87 % of control.

Q: And the T/C (endpoint: mean survival time, dose: 25.0 mg/kg/injection, schedule: Q01DX009 (ip), vehicle: saline)?
A: The T/C was 102 % of control.

Q: And the T/C (endpoint: mean survival time, dose: 25.0 mg/kg/injection, schedule: Q04DX003 (ip), vehicle: saline)?
A: Its T/C is 110 % of control.

Q: And the T/C (endpoint: mean survival time, dose: 50.0 mg/kg/injection, schedule: Q01DX009 (ip), vehicle: saline)?
A: Its T/C is 93 % of control.

Q: What about the T/C (endpoint: mean survival time, dose: 50.0 mg/kg/injection, schedule: Q04DX003 (ip), vehicle: saline) of the same compound?
A: The T/C was 95 % of control.

Q: And the T/C (endpoint: mean survival time, dose: 100.0 mg/kg/injection, schedule: Q01DX009 (ip), vehicle: saline)?
A: Its T/C is 102 % of control and 92 % of control.

Q: And the T/C (endpoint: mean survival time, dose: 100.0 mg/kg/injection, schedule: Q04DX003 (ip), vehicle: saline)?
A: The T/C was 98 % of control and 92 % of control.

Q: And the T/C (endpoint: mean survival time, dose: 200.0 mg/kg/injection, schedule: Q01DX009 (ip), vehicle: saline)?
A: Its T/C is 105 % of control.

Q: CC(C)CS.[Pb] was tested. Which T/C (endpoint: mean survival time, dose: 100.0 mg/kg/injection, schedule: Q04DX002 (ip), vehicle: gum acacia) did it give?
A: The T/C was 93 % of control.

Q: What about the T/C (endpoint: mean survival time, dose: 200.0 mg/kg/injection, schedule: Q04DX002 (ip), vehicle: gum acacia) of the same compound?
A: Its T/C is 93 % of control.

Q: And the T/C (endpoint: mean survival time, dose: 400.0 mg/kg/injection, schedule: Q04DX002 (ip), vehicle: gum acacia)?
A: Its T/C is 89 % of control.

Q: With CC[CH2][Pb]([Cl])([CH2]CC)[CH2]CC as the compound, how does the T/C (endpoint: mean survival time, dose: 12.5 mg/kg/injection, schedule: Q04DX003 (ip), vehicle: Klucel (hydroxypropylcellulose) (HPC)) read?
A: Its T/C is 106 % of control.

Q: And the T/C (endpoint: mean survival time, dose: 25.0 mg/kg/injection, schedule: Q04DX003 (ip), vehicle: Klucel (hydroxypropylcellulose) (HPC))?
A: Its T/C is 95 % of control.

Q: What about the T/C (endpoint: mean survival time, dose: 50.0 mg/kg/injection, schedule: Q04DX003 (ip), vehicle: Klucel (hydroxypropylcellulose) (HPC)) of the same compound?
A: Its T/C is 90 % of control.

Q: How did the T/C (endpoint: mean survival time, dose: 100.0 mg/kg/injection, schedule: Q01DX009 (ip), vehicle: saline with Tween-80) turn out when Brc1ccc(Oc2ccccc2)cc1 was run?
A: Its T/C is 101 % of control.

Q: And the T/C (endpoint: mean survival time, dose: 100.0 mg/kg/injection, schedule: Q04DX003 (ip), vehicle: saline with Tween-80)?
A: The T/C was 102 % of control.

Q: And the T/C (endpoint: mean survival time, dose: 200.0 mg/kg/injection, schedule: Q01DX009 (ip), vehicle: saline with Tween-80)?
A: The T/C was 95 % of control.

Q: What about the T/C (endpoint: mean survival time, dose: 200.0 mg/kg/injection, schedule: Q04DX003 (ip), vehicle: saline with Tween-80) of the same compound?
A: Its T/C is 97 % of control.

Q: What about the T/C (endpoint: mean survival time, dose: 400.0 mg/kg/injection, schedule: Q01DX009 (ip), vehicle: saline with Tween-80) of the same compound?
A: Its T/C is 97 % of control.

Q: And the T/C (endpoint: mean survival time, dose: 400.0 mg/kg/injection, schedule: Q04DX003 (ip), vehicle: saline with Tween-80)?
A: Its T/C is 108 % of control.
